# Biological target: T1, purified human HDAC6 (Homo sapiens, UniProt Q9UBN7)
# T1 construct: purchased BPS Bioscience 5006
# T1 sequence (Q9UBN7 1-1215): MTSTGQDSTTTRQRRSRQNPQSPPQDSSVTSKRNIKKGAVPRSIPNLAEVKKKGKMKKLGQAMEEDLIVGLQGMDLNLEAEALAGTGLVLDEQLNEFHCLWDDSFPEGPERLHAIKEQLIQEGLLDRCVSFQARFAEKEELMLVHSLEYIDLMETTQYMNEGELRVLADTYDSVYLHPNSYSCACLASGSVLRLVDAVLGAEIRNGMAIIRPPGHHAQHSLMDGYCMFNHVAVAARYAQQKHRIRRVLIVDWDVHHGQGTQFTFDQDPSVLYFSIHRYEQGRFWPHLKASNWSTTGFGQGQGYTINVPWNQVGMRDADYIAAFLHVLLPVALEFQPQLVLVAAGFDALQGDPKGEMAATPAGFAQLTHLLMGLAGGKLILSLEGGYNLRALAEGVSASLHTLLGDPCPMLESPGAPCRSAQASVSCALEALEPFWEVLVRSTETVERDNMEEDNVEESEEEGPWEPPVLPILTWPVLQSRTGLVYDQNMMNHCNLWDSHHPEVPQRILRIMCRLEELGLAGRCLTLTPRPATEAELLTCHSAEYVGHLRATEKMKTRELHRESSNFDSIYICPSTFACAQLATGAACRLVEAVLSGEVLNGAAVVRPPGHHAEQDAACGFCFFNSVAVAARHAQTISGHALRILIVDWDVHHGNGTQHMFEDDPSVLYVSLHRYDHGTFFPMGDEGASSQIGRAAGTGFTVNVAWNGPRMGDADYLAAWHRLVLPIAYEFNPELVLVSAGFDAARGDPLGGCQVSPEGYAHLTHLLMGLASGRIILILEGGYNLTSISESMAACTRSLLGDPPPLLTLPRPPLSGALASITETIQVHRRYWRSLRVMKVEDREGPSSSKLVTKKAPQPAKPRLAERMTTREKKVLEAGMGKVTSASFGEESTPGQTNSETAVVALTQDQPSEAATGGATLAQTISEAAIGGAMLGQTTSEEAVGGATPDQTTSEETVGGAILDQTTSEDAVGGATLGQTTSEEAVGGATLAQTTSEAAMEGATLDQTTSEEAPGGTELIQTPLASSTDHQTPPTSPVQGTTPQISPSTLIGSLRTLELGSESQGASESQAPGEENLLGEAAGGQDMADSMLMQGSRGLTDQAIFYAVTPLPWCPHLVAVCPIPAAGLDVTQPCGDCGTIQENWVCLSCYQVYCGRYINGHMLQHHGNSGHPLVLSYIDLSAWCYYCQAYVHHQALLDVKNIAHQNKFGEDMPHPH
# Assay: HDAC6 Enzyme Assay
# Format: biochemical
# Details: bin: greater than 500 nM and less than 1 μM (lower bound in nM, upper bound in μM)
# Procedure: To measure the inhibition of HDAC6 activity, purified human HDAC6 (BPS Bioscience; Cat. No. 5006) is incubated with substrate Ac-Arg-Gly-Lys(Ac)-AMC peptide (Bachem Biosciences; Cat. No. 1-1925) for 1 hour at 30° C. in the presence of test compounds or vehicle DMSO control. The reaction is stopped with the HDAC inhibitor trichostatin A (Sigma; Cat. No. T8552) and the amount of Arg-Gly-Lys-AMC generated is quantitated by digestion with trypsin (Sigma; Cat. No. T1426) and subsequent measurement of the amount of AMC released using a fluorescent plate reader (Pherastar; BMG Technologies) set at Ex 340 nm and Em 460 nm. Concentration response curves are generated by calculating the fluorescence increase in test compound-treated samples relative to DMSO-treated controls, and enzyme inhibition (IC50) values are determined from those curves.
row,IC50 [nM],Compound
1,500 to 1000,"CCc1cc(C(=O)NC(C)c2cccc(C(=O)NO)c2)n(C)n1 (centres unmarked) [Compound I-216, 3-ethyl-N-(1-{3-[(hydroxyamino)carbonyl]phenyl}ethyl)-1-methyl-1H-pyrazole-5-carboxamide]"
2,500 to 1000,"Cc1nc(C(F)(F)F)c(C(=O)NC(c2ccc(C(=O)NO)cc2)C(C)C)s1 (centres unmarked) [Compound I-139, N-(1-{4-[(hydroxyamino)carbonyl]phenyl}-2-methylpropyl)-2-methyl-4-(trifluoromethyl)-1,3-thiazole-5-carboxamide]"

# Same assay, conditions: bin: greater than 1 μM
row,IC50 [nM],Compound
1,> 1000,"CC(C)C(=O)NC(C)c1ccc(C(=O)NO)cc1 (centres unmarked) [Compound I-36, N-hydroxy-4-[1-(isobutyrylamino)ethyl]benzamide]"

# Same assay, conditions: purified human HDAC6, substrate Ac-Arg-Gly-Lys(Ac)-AMC, 1 hour at 30° C.; reported as bins
row,IC50 [nM],Compound
1,100 to 500,"CC(NC(=O)C1C(C)(C)C1(C)C)c1ccc(C(=O)NO)cc1 (centres unmarked) [Compound I-372, N-hydroxy-4-(1-{[(2,2,3,3-tetramethylcyclopropyl)carbonyl]amino}ethyl)benzamide]"
2,100 to 500,"O=C(N[C@H](c1ccc(C(=O)NO)cc1)C(F)(F)F)NC12CC3CC(CC(C3)C1)C2 [Compound I-105, 4-((1R)-1-{[(1-adamantylamino)carbonyl]amino}-2,2,2-trifluoroethyl)-N-hydroxybenzamide]"
3,100 to 500,"Cc1cccc(CNC(=O)NC(C)c2ccc(C(=O)NO)cc2)c1 (centres unmarked) [Compound I-316, N-hydroxy-4-[1-({[(3-methylbenzyl)amino]carbonyl}amino)ethyl]benzamide]"
4,< 100,"CC(NC(=O)c1ccc2occc2c1)c1ccc(C(=O)NO)cc1 (centres unmarked) [Compound I-349, N-(1-{4-[(hydroxyamino)carbonyl]phenyl}ethyl)-1-benzofuran-5-carboxamide]"
5,< 100,"CC(C)[C@@H](NC(=O)N[C@H](C)c1ccccc1)c1ccc(C(=O)NO)cc1 [Compound I-514, N-hydroxy-4-[(1R)-2-methyl-1-({[(1R)-1-phenylethyl]carbamoyl}amino)propyl]benzamide]"
6,< 100,"CC(C)[C@@H](NC(=O)c1cc2ccccc2[nH]1)c1ccc(C(=O)NO)cc1 [Compound I-68, N-((1R)-1-{4-[(hydroxyamino)carbonyl]phenyl}-2-methylpropyl)-1H-indole-2-carboxamide]"
7,< 100,"CC(NC(=O)c1ccc(-c2cnco2)cc1)c1ccc(C(=O)NO)cc1 (centres unmarked) [Compound I-138, N-(1-{4-[(hydroxyamino)carbonyl]phenyl}ethyl)-4-(1,3-oxazol-5-yl)benzamide]"
8,100 to 500,"COc1ccc(C(=O)NC(C)c2cccc(C(=O)NO)c2)cc1 (centres unmarked) [Compound I-202, N-hydroxy-3-{1-[(4-methoxybenzoyl)amino]ethyl}benzamide]"
9,< 100,"CC(NC(=O)c1cc(-c2ccccc2)n[nH]1)c1ccc(C(=O)NO)cc1 (centres unmarked) [Compound I-109, N-(1-{4-[(hydroxyamino)carbonyl]phenyl}ethyl)-3-phenyl-1H-pyrazole-5-carboxamide]"
10,< 100,"C[C@@H](NC(=O)C1(C)CCCCC1)c1ccc(C(=O)NO)cc1 [Compound I-26, N-hydroxy-4-((1R)-1-{[(1-methylcyclohexyl)carbonyl]amino}ethyl)benzamide]"
11,< 100,"CC(NC(=O)Nc1ccccc1Oc1ccccc1)c1ccc(C(=O)NO)cc1 (centres unmarked) [Compound I-31, N-hydroxy-4-[1-({[(2-phenoxyphenyl)amino]carbonyl}amino)ethyl]benzamide]"
12,100 to 500,"CC(C)C(NC(=O)C1(c2ccc(Cl)cc2)CC1)c1ccc(C(=O)NO)cc1 (centres unmarked) [Compound I-300, 4-[1-({[1-(4-chlorophenyl)cyclopropyl]carbonyl}amino)-2-methylpropyl]-N-hydroxybenzamide]"
13,< 100,"CC(C)C(NC(=O)c1nc2ccccc2s1)c1ccc(C(=O)NO)cc1 (centres unmarked) [Compound I-191, N-(1-{4-[(hydroxyamino)carbonyl]phenyl}-2-methylpropyl)-1,3-benzothiazole-2-carboxamide]"
14,< 100,"CCC[C@@H](NC(=O)c1sc2ccccc2c1C)c1ccc(C(=O)NO)cc1 [Compound I-62, N-((1R)-1-{4-[(hydroxyamino)carbonyl]phenyl}butyl)-3-methyl-1-benzothiophene-2-carboxamide]"
